Results: patent publication US10538491B2, “4,5-substituted picolinamide and picolinonitrile metabotropic glutamate receptor 2 negative allosteric modulators” (Vanderbilt University, priority 2015, dated 2020)

Molecular target: rat mGlu2 (Rattus norvegicus (Rat), UniProt P31421)
Test: mGlu2 Ca2+ flux assay
Assay type: cell-based
Settings: for IC50: Gα15 HEK293 cells stably expressing rat mGlu2, glutamate EC80, >10,000 = no plateau, >30,000 = no measurable activity; for remaining activity at 30 µM / rat mGlu2 Glu max: amplitude of response in the presence of 30 μM test compound as percentage of maximal response to glutamate; for remaining activity at 30 µM: read-out: rat mGlu2 Glu max
How it was run: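 Gα15 HEK293 cells stably expressing rat mGlu2, Fluo-4 loaded; compound added, then glutamate at EC20 after 2.3 min and EC80 afterward, calcium flux read as F/F0. Peak amplitude around EC80 addition normalized to glutamate max; IC50 by unconstrained 4-parameter fit, top concentration 30 μM.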

Sequence of rat mGlu2 (P31421 19-872): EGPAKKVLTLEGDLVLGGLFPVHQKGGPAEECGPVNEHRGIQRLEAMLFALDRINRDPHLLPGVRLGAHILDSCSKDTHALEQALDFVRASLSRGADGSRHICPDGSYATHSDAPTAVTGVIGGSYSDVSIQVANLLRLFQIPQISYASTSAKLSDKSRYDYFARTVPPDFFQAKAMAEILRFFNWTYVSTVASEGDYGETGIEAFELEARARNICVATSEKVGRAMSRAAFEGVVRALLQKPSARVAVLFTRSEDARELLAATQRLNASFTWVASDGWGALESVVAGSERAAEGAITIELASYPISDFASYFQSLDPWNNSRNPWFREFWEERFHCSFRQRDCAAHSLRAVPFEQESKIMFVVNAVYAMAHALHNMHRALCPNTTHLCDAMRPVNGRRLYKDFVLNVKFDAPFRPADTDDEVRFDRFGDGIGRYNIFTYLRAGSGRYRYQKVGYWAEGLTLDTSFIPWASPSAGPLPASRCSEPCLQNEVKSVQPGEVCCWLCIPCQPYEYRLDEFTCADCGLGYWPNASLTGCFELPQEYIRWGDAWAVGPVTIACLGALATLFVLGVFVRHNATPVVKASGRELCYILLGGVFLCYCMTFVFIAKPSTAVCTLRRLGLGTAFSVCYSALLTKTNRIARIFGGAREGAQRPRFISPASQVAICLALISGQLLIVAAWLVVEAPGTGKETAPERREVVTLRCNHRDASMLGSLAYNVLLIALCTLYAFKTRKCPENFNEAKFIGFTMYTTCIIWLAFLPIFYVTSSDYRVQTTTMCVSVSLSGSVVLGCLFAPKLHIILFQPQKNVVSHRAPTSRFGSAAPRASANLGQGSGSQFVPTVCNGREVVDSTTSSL

| Compound | IC50 [µM] | remaining activity at 30 µM [%] | NAM designation (concentration-dependent decrease in the glutamate EC80 response) | rat mGlu2 Glu max |
| --- | --- | --- | --- | --- |
| CC1(C)CN(CCCOc2cnc(C(N)=O)cc2-c2ccc(F)cc2)CCO1 [Compound 98, 5-(3-(2,2-dimethylmorpholino)propoxy)-4-(4-fluorophenyl)picolinamide] | 3.25 | 0.97 | – | – |
| C[C@@H]1CN(CCCOc2cnc(C(N)=O)cc2-c2ccc(F)cc2)C[C@H](C)O1 [Compound 99, 5-(3-((cis)-2,6-dimethylmorpholino)propoxy)-4-(4-fluorophenyl)picolinamide] | > 10 | 15.8 | – | – |
| NC(=O)c1cc(-c2ccc(F)cc2)c(OCCCN2CCOCC2)cn1 [Compound 100, 4-(4-fluorophenyl)-5-(3-morpholinopropoxy)picolinamide] | > 10 | 46.8 | – | – |
| NC(=O)c1cc(-c2ccc(F)cc2)c(OCCOc2cc(Br)ccc2F)cn1 [Compound 101, 5-(2-(5-bromo-2-fluorophenoxy)ethoxy)-4-(4-fluorophenyl)picolinamide] | 4.26 | 1.85 | – | – |
| NC(=O)c1cc(-c2ccc(F)cc2)c(OCCOc2cc(F)cc(Br)c2)cn1 [Compound 102, 5-(2-(3-bromo-5-fluorophenoxy)ethoxy)-4-(4-fluorophenyl)picolinamide] | 5.24 | 3.34 | – | – |
| NC(=O)c1cc(-c2ccc(F)cc2)c(OCCOc2ccc(F)c(Br)c2)cn1 [Compound 103, 5-(2-(3-bromo-4-fluorophenoxy)ethoxy)-4-(4-fluorophenyl)picolinamide] | > 10 | 53.7 | – | – |
| NC(=O)c1cc(-c2ccc(F)cc2)c(OCCOc2cccc(Br)c2F)cn1 [Compound 104, 5-(2-(3-bromo-2-fluorophenoxy)ethoxy)-4-(4-fluorophenyl)picolinamide] | > 30 | – | – | – |
| NC(=O)c1cc(-c2ccc(F)cc2)c(OCCOc2ccccc2Br)cn1 [Compound 105, 5-(2-(2-bromophenoxy)ethoxy)-4-(4-fluorophenyl)picolinamide] | > 30 | – | – | – |
| NC(=O)c1cc(-c2ccc(F)cc2)c(OCCOc2cccc(Br)c2)cn1 [Compound 106, 5-(2-(3-bromophenoxy)ethoxy)-4-(4-fluorophenyl)picolinamide] | 3.44 | 26.5 | (Partial NAM) | – |
| NC(=O)c1cc(-c2ccc(F)cc2)c(OCCOc2ccc(F)cc2)cn1 [Compound 107, 5-(2-(4-fluorophenoxy)ethoxy)-4-(4-fluorophenyl)picolinamide] | 8.51 | -10.7 | – | – |
| NC(=O)c1cc(-c2ccc(F)cc2)c(OCCOc2cccc(F)c2)cn1 [Compound 108, 5-(2-(3-fluorophenoxy)ethoxy)-4-(4-fluorophenyl)picolinamide] | 2.38 | 1.95 | – | – |
| NC(=O)c1cc(-c2ccc(F)cc2)c(OCCOc2ccccc2F)cn1 [Compound 109, 5-(2-(2-fluorophenoxy)ethoxy)-4-(4-fluorophenyl)picolinamide] | – | 2.16 | – | – |
| NC(=O)c1cc(-c2ccc(F)cc2)c(OCCOc2cc(F)cc(F)c2)cn1 [Compound 110, 5-(2-(3,5-difluorophenoxy)ethoxy)-4-(4-fluorophenyl)picolinamide] | 1.72 | 38.7 | – | – |
| NC(=O)c1cc(-c2ccc(F)cc2)c(OCCOc2cncc(Br)c2)cn1 [Compound 111, 5-(2-((5-bromopyridin-3-yl)oxy)ethoxy)-4-(4-fluorophenyl)picolinamide] | 0.624 | 1.34 | – | – |
| NC(=O)c1cc(-c2ccc(F)cc2)c(OCCOc2cncc(F)c2)cn1 [Compound 112] | 0.827 | – | – | 0.05% |
| NC(=O)c1cc(-c2ccc(F)cc2)c(OCCOc2ccc(F)nc2)cn1 [Compound 113] | 0.502 | – | – | 1.38 (n = 2) % |
| Cc1ccc(OCCOc2cnc(C(N)=O)cc2-c2ccc(F)cc2)cn1 [Compound 114] | 0.738 | – | – | 1.80% |
| NC(=O)c1cc(-c2ccc(F)cc2)c(OCCOc2ccc(C(F)(F)F)nc2)cn1 [Compound 115, 4-(4-fluorophenyl)-5-(2-((6-(trifluoromethyl)pyridin-3-yl)oxy)ethoxy)picolinamide] | 1.31 | 3.64 | – | – |
| NC(=O)c1cc(-c2ccc(F)cc2)c(OCCOc2ccnc(C(F)(F)F)c2)cn1 [Compound 116, 4-(4-fluorophenyl)-5-(2-((2-(trifluoromethyl)pyridin-4-yl)oxy)ethoxy)picolinamide] | 0.242 ± 0.083 | 1.51 ± 0.16 | – | – |
| NC(=O)c1cc(-c2ccc(F)cc2)c(OCCOc2ccnc(F)c2)cn1 [Compound 117, 4-(4-fluorophenyl)-5-(2-((2-fluoropyridin-4-yl)oxy)ethoxy)picolinamide] | 0.615 | 1.02 | – | – |

Continued, values first:

| IC50 [µM] | remaining activity at 30 µM [%] | NAM designation (concentration-dependent decrease in the glutamate EC80 response) | rat mGlu2 Glu max | Compound |
| --- | --- | --- | --- | --- |
| 0.41 | 1.16 | – | – | Cc1cc(OCCOc2cnc(C(N)=O)cc2-c2ccc(F)cc2)ccn1 [Compound 118, 4-(4-fluorophenyl)-5-(2-((2-methylpyridin-4-yl)oxy)ethoxy)picolinamide] |
| > 10 | 20.3 | – | – | Cc1ncc(OCCOc2cnc(C(N)=O)cc2-c2ccc(F)cc2)cn1 [Compound 119, 4-(4-fluorophenyl)-5-(2-((2-methylpyrimidin-5-yl)oxy)ethoxy)picolinamide] |
| 0.483 | 1.72 | – | – | CC(COc1ccnc(C(F)(F)F)c1)Oc1cnc(C(N)=O)cc1-c1ccc(F)cc1 (stereo not drawn) [Compound 120, 4-(4-fluorophenyl)-5-((1-((2-(trifluoromethyl)pyridin-4-yl)oxy)propan-2-yl)oxy)picolinamide] |
| 2.13 | 1.66 | – | – | Cc1ccc(OC(C)COc2cnc(C(N)=O)cc2-c2ccc(F)cc2)cn1 (stereo not drawn) [Compound 121, 4-(4-fluorophenyl)-5-(2-((6-methylpyridin-3-yl)oxy)propoxy)picolinamide] |
| > 10 | 8.04 | – | – | Cc1ncc(OC(C)COc2cnc(C(N)=O)cc2-c2ccc(F)cc2)cn1 (stereo not drawn) [Compound 122, 4-(4-fluorophenyl)-5-(2-((2-methylpyrimidin-5-yl)oxy)propoxy)picolinamide] |
| 1.51 | 0.37 | – | – | CC(COc1cnc(C(N)=O)cc1-c1ccc(F)cc1)Oc1cccnc1 (stereo not drawn) [Compound 123, 4-(4-fluorophenyl)-5-(2-(pyridin-3-yloxy)propoxy)picolinamide] |
| 0.835 | 0.75 | – | – | CC(COc1cnc(C(N)=O)cc1-c1ccc(F)cc1)Oc1ccnc(C(F)(F)F)c1 (stereo not drawn) [Compound 124, 4-(4-fluorophenyl)-5-(2-((2-(trifluoromethyl)pyridin-4-yl)oxy)propoxy)picolinamide] |
| > 10 | 35.1 | – | – | Cc1ncc(OCCCOc2cnc(C(N)=O)cc2-c2ccc(F)cc2)cn1 [Compound 125, 4-(4-fluorophenyl)-5-(3-((2-methylpyrimidin-5-yl)oxy)propoxy)picolinamide] |
| 2.94 | – | – | 5.52% | NC(=O)c1cc(-c2ccc(F)cc2)c(OCCCOc2ccc(C(F)(F)F)nc2)cn1 [Compound 126] |
| 1.59 | 2.03 | – | – | NC(=O)c1cc(-c2ccc(F)cc2)c(OCCCOc2ccnc(C(F)(F)F)c2)cn1 [Compound 127, 4-(4-fluorophenyl)-5-(3-((2-(trifluoromethyl)pyridin-4-yl)oxy)propoxy)picolinamide] |
| 3.78 | 2.52 | – | – | NC(=O)c1cc(-c2ccc(F)cc2)c(OCCCOc2cccnc2)cn1 [Compound 128, 4-(4-fluorophenyl)-5-(3-(pyridin-3-yloxy)propoxy)picolinamide] |
| 2.87 | – | – | 2.91% | Cc1ccc(OCCCOc2cnc(C(N)=O)cc2-c2ccc(F)cc2)cn1 [Compound 129] |
| 2.25 | 9.91 | – | – | NC(=O)c1cc(-c2ccc(F)cc2)c(OCCOCc2ccccc2)cn1 [Compound 130, 5-(2-(benzyloxy)ethoxy)-4-(4-fluorophenyl)picolinamide] |
| 5.77 | 2.62 | – | – | CN(CCOCc1cncc(F)c1)c1cnc(C(N)=O)cc1-c1ccc(F)cc1 [Compound 131, 4-(4-fluorophenyl)-5-((2-((5-fluoropyridin-3-yl)methoxy)ethyl)(methyl)amino)picolinamide] |
| 1.05 | -1.48 | – | – | NC(=O)c1cc(-c2ccc(F)cc2)c(NCC2CCOCC2)cn1 [Compound 132, 4-(4-fluorophenyl)-5-(((tetrahydro-2H-pyran-4-yl)methyl)amino)picolinamide] |
| 6.54 | -4.31 | – | – | NC(=O)c1cc(-c2ccc(F)cc2)c(NCCN2CCOCC2)cn1 [Compound 133, 4-(4-fluorophenyl)-5-((2-morpholinoethyl)amino)picolinamide] |
| 2.71 | -3.71 | – | – | CC(CN1CCOCC1)Nc1cnc(C(N)=O)cc1-c1ccc(F)cc1 (stereo not drawn) [Compound 134, 4-(4-fluorophenyl)-5-((1-morpholinopropan-2-yl)amino)picolinamide] |
| 5.7 | 1.19 | – | – | CC(CNc1cnc(C(N)=O)cc1-c1ccc(F)cc1)N1CCOCC1 (stereo not drawn) [Compound 135, 4-(4-fluorophenyl)-5-((2-morpholinopropyl)amino)picolinamide] |
| > 10 | 31 | – | – | CN(CCN1CCOCC1)c1cnc(C(N)=O)cc1-c1ccc(F)cc1 [Compound 136, 4-(4-fluorophenyl)-5-(methyl(2-morpholinoethyl)amino)picolinamide] |
| 9.87 | -13.5 | – | – | NC(=O)c1cc(-c2ccc(F)cc2)c(NCCCN2CCOCC2)cn1 [Compound 137, 4-(4-fluorophenyl)-5-((3-morpholinopropyl)amino)picolinamide] |
